In patent publication US20220110902A1, “Methods of treating amyloid-beta peptide diseases” (Ecole Polytechnique Federale de Lausanne, priority 2016, published 2022):

How the values were obtained:
SH-SY5Y(APPSwe) cells = test: Western-blot and transcript analysis in SH-SY5Y(APPSwe) cells; type: cell-based, human; details: NR 1 mM
Experimental: Human: Total RNA was extracted using guanidine-isothiocyanate lysis (PureLink, Ambion, Waltham, Mass.) from cortex samples, and RNA integrity and concentration was verified using Bioanalysis (Agilent, Santa Clara, Calif.). Samples were randomized based on diagnostic group and assayed in triplicate on a real-time PCR cycler (ABI 7500, Applied Biosystems, Foster City) in 96-well optical plates. qPCR was performed using Taqman hydrolysis probe primer sets (Applied Biosystems) specific for the following human transcripts: HSPA9, HSPD1, YMEIL1, DNM1L, BECN1, SQSTM1, PARK2, COX5A, CYC1. A primer set specific for human GAPDH was used as a control housekeeping transcript. For the APPSwe-expressing SH-SY5Y cell line, total RNA was extracted […] using TriPure RNA isolation reagent, and expression of selected transcripts was analyzed using the LightCycler480 system (Roche) and LightCycler® 480 SYBR Green I Master reagent (Roche). The GAPDH gene was used as housekeeping reference. The ddCT method was employed to determine relative levels of each amplicon. […] The SH-SY5Y neuroblastoma cell line expressing the APP Swedish K670N/M671L double mutation (APPSwe) was a kind gift of Prof. Cedazo-Minguez (Karolinska Institute, Sweden). Cells were grown in DMEM/F-12, supplemented with 10% fetal bovine serum (FBS, Gibco), GlutaMAX (100×, Gibco) and penicillin/streptomycin (1×, Gibco). Cells were selected in 4 μg/mL Geneticin® Selective Antibiotic (G418 Sulfate, Sigma) and grown for three generations before experiments with cells plated and passaged at 4×10^3 cells/ml and 60% confluence, respectively. Cells were cultured at 37° C. under a 5% CO2 atmosphere and tested for mycoplasma using Mycoprobe (#CUL001B, R&D systems) following the manufacturer's instructions. Cells were treated with 10 μg/mL dox, NR 1 or 3 mM, ISRIB 0.5 μM (Sigma), as indicated for 24 hours before cell harvesting or fixation. For the immunostaining, cells were fixed with 1× Formal-Fixx (Thermo Scientific) for 15 min. […]

APP/PSEN1 AD mice = test: NR treatment of APP/PSEN1 AD mice: cortex plaques, MSR, Oxphos proteins; type: in vivo, mouse; details: NR 400 mg/kg/day for 10 weeks
Experimental: Young (1 month old) and aged (20-24 months old) C57BL/6JRj mice were purchased from Janvier Labs. APP/PSEN1 mice (Tg(APPswe,PSEN1dE9)85Dbo/Mmjax) were purchased from JAX. C57BL/6JR mice were fed with pellets containing vehicle or NR (400 mg/kg/day) for 6-8 weeks, while APP/PSEN1 mice were fed NR pellets for 10 weeks, starting at the age of 4 months. The pellets were prepared by mixing powdered chow diet (20165, Harlan Laboratories) with water or with NR dissolved in water. Pellets were dried under a laminar flow hood for 48 hours. Mice were housed by groups of 2 to 5 animals per cage and randomized to 7-8 animals per experimental group according to their body weight. No blinding was used during the experiment procedures. Mouse: Total RNA was extracted from tissues using TriPure RNA isolation reagent (Roche) according to the product manual. Expression of selected genes was analyzed using the LightCycler480 system (Roche) and LightCycler® 480 SYBR Green I Master reagent (Roche). The beta-2-Microglobulin B2m gene was used as housekeeping reference. Mouse: Frozen cortex tissue samples were lysed by mechanical homogenization with RIPA buffer containing protease and phosphatase inhibitors, and analyzed by SDS-PAGE and western blot. Subsequently, the concentration of extracted protein was determined by using the Bio-Rad Protein Assay. Proteins were detected using the following antibodies: HSP60 (Enzo Life Science), CLPP (Sigma), anti-GAPDH (14C10) (Cell Signaling), LONP1 (Sigma), PINK1 (Novus Biologicals), LC3 A/B (Cell Signaling), SDHB (Oxphos cocktail, Abcam), MTCO1 (Abcam), Ubiquitin (Enzo), P62 (BD Transduction Laboratories), Phopsho P62 (Cell Signaling), VDAC (Abcam), β-Amyloid, 17-24 (4G8) (BioLegend). In addition to the housekeeping proteins, loading was monitored by Ponceau Red to ensure a homogeneous loading. […] Pixel intensity was quantified by using ImageJ software. […] Quantitative analysis of the immunofluorescence data was carried out by histogram analysis of the fluorescence intensity at each pixel across the images using Image J (Fiji; National Institutes of Health). […]

NC(=O)c1ccc[n+]([C@@H]2O[C@H](CO)[C@@H](O)[C@H]2O)c1 [NR, Nicotinamide Riboside triflate]
MSR transcript levels (SH-SY5Y(APPSwe) cells; 24 h, dox 10 μg/mL): increased
oxidative phosphorylation (OXPHOS) protein levels (SH-SY5Y(APPSwe) cells; Western-blot): increases
MSR signature in cortex (APP/PSEN1 AD mice): induced
Oxphos protein levels in cortex (APP/PSEN1 AD mice): induced
Aβ deposits (plaques) in cortex, Thioflavin S (APP/PSEN1 AD mice; starting at 4 months of age): robustly reduced
